The values below come from patent publication US20100113776A1, “PYRAZOLE DERIVATIVE” (TAISHO PHARMACEUTICAL CO.,LTD., priority 2006, published 2010).

Assay [1] deals with T1, human H3 receptor (Homo sapiens, UniProt Q9Y5N1).
T1 construct: purchased Euroscreen ES-392-M; host or cells: CHO-K1 cells (recombinant expression)
In words: [35S]GTP-γ-S binding test. It is filed as biochemical. Particulars: human H3 receptor membrane preparation; 100 μM R(−)-α-methylhistamine; 0.2 nM [35S]GTP-γ-S; 30 μM GDP. On the procedure:
A human H3 receptor membrane preparation (7.5 μg protein/100 μl), 30 μM GDP, 100 μM R(−)-α-methylhistamine and a test compound were reacted at room temperature for 30 minutes. After completion of the reaction, [^35S]GTP-γ-S (0.2 nM) was added and reacted for an additional 30 minutes. After completion of the reaction, the reaction mixture was subjected to suction filtration through a glass filter (GF/C). The glass filter was washed three times with 20 mM HEPES washing solution (pH 7.4) containing 100 mM sodium chloride and 1 mM magnesium chloride. After washing, the glass filter was dried and a scintillator was added thereto, followed by measurement of radioactivity on the filter using a liquid scintillation counter.
Binding of [^35S]GTP-γ-S in the absence of R(−)-α-methylhistamine was defined as non-specific binding, and the difference between total binding in the presence of R(−)-α-methylhistamine and non-specific binding was defined as specific binding of [^35S]GTP-γ-S. Fixed concentrations of [^35S]GTP-γ-S (0.2 nM) and R(−)-α-methylhistamine (100 μM) were reacted under the above conditions with each test drug at various concentrations to obtain an inhibition curve. The inhibition curve was used to determine the concentration (IC50) of each test drug required for 50% inhibition of [^35S]GTP-γ-S binding.
A general note: GTPγS is a poorly hydrolysed GTP analogue; its binding reports G protein activation.

The subject of another assay is male SD rats. In words: Social recognition test. As to conditions: compared to the vehicle group. It is filed as in vivo, rat. As to the method: In this test, male SD rats were used. Adult rats were placed in a Perspex test box and acclimated for 30 minutes. Then, young rats were placed in the same test box, and the time taken for the adult rats to show exploratory behavior to the young rats during 5 minutes was measured (first exploratory behavior time). The exploratory behavior measured included sniffing, grooming, and closely following. After a 5 minute exploration, the adult and young rats were removed from the test box and returned to their respective home cages. After 90 minutes, the adult rats were placed again in the same test box as used in the first exploratory behavior test and acclimated for 30 minutes. Then, the same young rats as used in the first test were placed in the test box, and the time taken for the adult rats to show exploratory behavior to the young rats during 5 minutes was measured (second exploratory behavior time). The ratio of the second exploratory behavior time to the first exploratory behavior time (second/first exploratory behavior time ratio) was taken as an indicator of social recognition. The compound of the present invention was orally administered to the adult rats immediately after their first exploratory behavior. The compound of the present invention was dissolved in 0.03 N hydrochloric acid and tested at 0.1, 0.3 and 1 mg/kg.

For assay [2], the target named is T1, human H3 receptor. In words: H3 receptor binding test. As to conditions: membrane preparation of human H3 receptor-expressing CHO-K1 cells; 2 nM R(−)-α-methyl[3H]histamine; room temperature, 1 hour. On the procedure:
A membrane preparation of human H3 receptor-expressing CHO—K1 cells (Euroscreen, ES-392-M, 15 μg protein/200 μl), R(−)-α-methyl[^3H]histamine (Amersham, TRK-1017, specific activity: 1.74 TBq/mmol, 2 nM) and a test drug were reacted at room temperature for 1 hour. After completion of the reaction, the reaction mixture was subjected to suction filtration through a 0.3% polyethyleneimine-treated glass filter (GF/C). The glass filter was washed five times with 50 mM Tris-HCl washing solution (pH 7.4) containing 0.1% BSA and 5 mM magnesium chloride. After washing, the glass filter was dried and a scintillator was added thereto, followed by measurement of radioactivity on the filter using a liquid scintillation counter.
Binding of R(−)-α-methyl[^3H]histamine in the presence of 10 μM R(−)-α-methylhistamine was defined as non-specific binding, and the difference between total binding and non-specific binding of R(−)-α-methyl[^3H]histamine was defined as specific binding of R(−)-α-methyl[^3H]histamine. A fixed concentration (2 nM) of R(−)-α-methyl[^3H]histamine was reacted under the above conditions with each test drug at various concentrations to obtain an inhibition curve. The inhibition curve was used to determine the concentration (IC50) of each test drug required for 50% inhibition of R(−)-α-methyl[^3H]histamine binding.

T1 sequence (Q9Y5N1 whole entry): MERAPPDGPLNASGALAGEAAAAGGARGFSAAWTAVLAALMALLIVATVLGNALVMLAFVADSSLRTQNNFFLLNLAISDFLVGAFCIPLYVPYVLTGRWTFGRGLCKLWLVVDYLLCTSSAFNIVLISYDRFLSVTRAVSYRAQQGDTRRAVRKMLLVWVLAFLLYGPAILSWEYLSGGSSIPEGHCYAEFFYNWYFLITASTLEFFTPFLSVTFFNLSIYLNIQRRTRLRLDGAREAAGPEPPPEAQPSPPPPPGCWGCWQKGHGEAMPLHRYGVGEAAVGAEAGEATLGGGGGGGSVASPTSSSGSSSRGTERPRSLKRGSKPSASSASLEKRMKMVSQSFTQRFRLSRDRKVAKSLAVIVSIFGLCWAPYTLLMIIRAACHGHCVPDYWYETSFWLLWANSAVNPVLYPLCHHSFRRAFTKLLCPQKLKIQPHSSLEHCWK

As for `O=C(c1cnn(-c2ccc(OC3CCN(C4CCCC4)CC3)cc2)c1)N1CCCC1` [Compound No. 1, 1-cyclopentyl-4-{4-[4-(pyrrolidin-1-ylcarbonyl)-1H-pyrazol-1-yl]phenoxy}piperidine], the IC50 at human H3 receptor [1] stood at 2.6 nM; on human H3 receptor [2] it was 10.4 nM. The “second/first exploratory behavior time ratio” value in the assay with male SD rats (0.3 mg/kg orally to adult male SD rats immediately after first exploratory behavior) and in the assay with male SD rats (1 mg/kg orally to adult male SD rats immediately after first exploratory behavior) was “significantly reduced” each time. Take `CC1CCCC1N1CCC(Oc2ccc(-n3cc(C(=O)N4CCCC4)cn3)cc2)CC1` (stereo not shown) [Compound No. 5, 1-(2-methylcyclopentyl)-4-{4-[4-(pyrrolidin-1-ylcarbonyl)-1H-pyrazol-1-yl]phenoxy}piperidine]: the IC50 at human H3 receptor [2] was found to be 8.1 nM. Consider `O=C(c1cnn(-c2ccc(OC3CCN(C4CCC4)CC3)cc2)c1)N1CCCC1` [Compound No. 14, 1-cyclobutyl-4-{4-[4-(pyrrolidin-1-ylcarbonyl)-1-pyrazol-1-yl]phenoxy}piperidine], for which the half-maximal inhibitory concentration (IC50) on human H3 receptor [1] amounted to 1.6 nM; at human H3 receptor [2], 7.1 nM. For the compound `O=C(c1ccn(-c2ccc(OC3CCN(C4CCC4)CC3)cc2)n1)N1CCCC1` [Compound No. 68, {1-[4-(1-cyclobutylpiperidin-4-yloxy)phenyl]-1H-pyrazol-3-yl}pyrrolidin-1-yl-methanone], the IC50 on human H3 receptor [1] turned out to be 1.2 nM; at human H3 receptor [2] it was 7.1 nM. For the compound `O=C(NC1CCCC1)c1cnn(-c2ccc(OC3CCN(C4CCC4)CC3)cc2)c1` [compound 16, 1-{4-[(1-cyclobutylpiperidin-4-yl)oxy]phenyl}-N-cyclopentyl-1H-pyrazole-4-carboxamide], the IC50 at human H3 receptor [1] worked out at 1.1 nM; at human H3 receptor [2], 5.7 nM. Consider `O=C(NCC(F)(F)F)c1cnn(-c2ccc(OC3CCN(C4CCC4)CC3)cc2)c1` [compound 18, 1-{4-[(1-cyclobutylpiperidin-4-yl)oxy]phenyl}-N-(2,2,2-trifluoroethyl)-1H-pyrazole-4-carboxamide], for which the IC50 at human H3 receptor [2] turned out to be 14.7 nM. Regarding `O=C(NCC1CCCCC1)c1cnn(-c2ccc(OC3CCN(C4CCC4)CC3)cc2)c1` [compound 19, 1-{4-[(1-cyclobutylpiperidin-4-yl)oxy]phenyl}-N-(cyclohexylmethyl)-1H-pyrazole-4-carboxamide], at human H3 receptor [2], the IC50 was found to be 6.2 nM.

Broadly, the IC50 is the concentration needed to halve the response being measured.
